Measurements reported in patent US8580769B2, “Treatment of obesity, metabolic syndrome, and diabetes with protein kinase C inhibitors” (The United States of America as represented by the …, priority 2011, dated 2013).

Experiments:
recombinant PKC-ι = target: T1, recombinant PKC-ι (Homo sapiens, UniProt P41743); assay: recombinant PKC-ι activity assay (PIP3-activated); assay type: biochemical
T1 construct: purchased Biovision, Mountain View, Calif
T1 sequence (P41743 1-596): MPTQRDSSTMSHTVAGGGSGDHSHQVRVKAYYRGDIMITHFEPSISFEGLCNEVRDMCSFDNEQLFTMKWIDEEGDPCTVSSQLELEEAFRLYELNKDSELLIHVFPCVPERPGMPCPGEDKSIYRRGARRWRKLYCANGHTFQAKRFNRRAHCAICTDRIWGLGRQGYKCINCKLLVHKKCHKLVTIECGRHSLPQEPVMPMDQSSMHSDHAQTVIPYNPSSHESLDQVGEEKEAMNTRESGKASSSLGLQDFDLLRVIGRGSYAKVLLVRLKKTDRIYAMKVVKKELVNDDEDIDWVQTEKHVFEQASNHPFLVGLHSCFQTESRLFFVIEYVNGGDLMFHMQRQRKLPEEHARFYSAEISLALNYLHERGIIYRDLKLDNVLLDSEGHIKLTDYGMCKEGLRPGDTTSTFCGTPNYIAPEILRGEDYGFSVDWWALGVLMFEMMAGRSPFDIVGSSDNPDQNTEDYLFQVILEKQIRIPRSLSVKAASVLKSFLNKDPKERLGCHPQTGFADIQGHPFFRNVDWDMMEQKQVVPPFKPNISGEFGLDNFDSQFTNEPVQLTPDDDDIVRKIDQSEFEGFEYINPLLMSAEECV
Procedure: aPKCι Assays: aPKC enzyme activity was measured as previously described (Standaert et al., J. Biol. Chem. 279:24929-24934, 2004; Sajan et al., J. Lipid Res. 50:1133-1145, 2009; Sajan et al., Diabetologia 52:1197-1207, 2009; Farese et al., J. Clin. Invest. 117:2289-2301, 2007). […] After incubation, ^32P-labeled substrate was trapped on P-81 filter paper and counted. […]

PKC-ζ = target: T2, PKC-ζ (Homo sapiens, UniProt Q05513); assay: PKC-ζ inhibition; assay type: biochemical
T2 construct: purchased Biovision, Mountain View, Calif
T2 sequence (Q05513 1-592): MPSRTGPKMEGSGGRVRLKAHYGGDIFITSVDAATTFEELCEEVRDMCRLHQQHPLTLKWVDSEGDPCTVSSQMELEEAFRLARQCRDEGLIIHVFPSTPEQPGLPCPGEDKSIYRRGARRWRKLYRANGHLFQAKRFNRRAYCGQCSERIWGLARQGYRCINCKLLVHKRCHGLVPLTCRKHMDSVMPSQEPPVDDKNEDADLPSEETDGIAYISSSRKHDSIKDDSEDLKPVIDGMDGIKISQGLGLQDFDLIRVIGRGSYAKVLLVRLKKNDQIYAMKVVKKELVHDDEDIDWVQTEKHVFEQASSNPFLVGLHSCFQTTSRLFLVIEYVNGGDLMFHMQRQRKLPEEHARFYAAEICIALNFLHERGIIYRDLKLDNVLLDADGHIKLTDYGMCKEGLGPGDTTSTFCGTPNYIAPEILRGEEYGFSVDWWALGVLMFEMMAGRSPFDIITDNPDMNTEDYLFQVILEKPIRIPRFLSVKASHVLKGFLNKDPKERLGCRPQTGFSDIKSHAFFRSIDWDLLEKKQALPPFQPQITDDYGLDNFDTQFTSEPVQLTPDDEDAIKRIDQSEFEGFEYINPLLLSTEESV
Procedure: For assays of recombinant PKC-ι and PKC-ζ (10 ng/assay; Biovision, Mountain View, Calif.), […] phosphatidylinositol-3,4,5-(PO4)3 (PIP3; Matreya, Pleasant Gap, Pa.) ±1 ng phosphoinositide-dependent kinase-1 (PDK1; Upstate Cell Signaling) was added to maximally activate and thus better define aPKC activity.

aPKC = assay: insulin-stimulated tissue aPKC activity in wild type mice after a single ICAPP injection; assay type: in vivo, mouse; settings: 1.5 mg/kg ICAPP s.c., 2-30 hours, insulin 1 U/kg
Procedure: aPKCι Assays: aPKC enzyme activity was measured as previously described (Standaert et al., J. Biol. Chem. 279:24929-24934, 2004; Sajan et al., J. Lipid Res. 50:1133-1145, 2009; Sajan et al., Diabetologia 52:1197-1207, 2009; Farese et al., J. Clin. Invest. 117:2289-2301, 2007). In brief, aPKCs were immunoprecipitated from cell lysates with a rabbit polyclonal antiserum (Santa Cruz Biotechnologies) that recognizes the C-termini of both PKC-ζ and PKC-λ/ι (whereas mouse (Bandyopadhyay et al., Endocrinol. 141:4120-4127, 2000) and human (present findings) muscle contains mainly PKC-λ and PKC-ι, respectively, and little PKC-ζ, mouse and human liver contains substantial amounts of both PKC-ζ and PKC-λ (Sajan et al., J. Lipid Res. 50:1133-1145, 2009; Matsumoto et al., J. Clin. Invest. 112:935-944, 2003; and present results). Immunoprecipitates were collected on Sepharose-AG beads (Santa Cruz Biotechnologies), and beads were suspended and incubated for 8 minutes at 30° C. in 100 buffer containing 50 mM Tris/HCl (pH, 7.5), 100 μM Na3VO4, 100 μM Na4P2O7, 1 mM NaF, 100 μM PMSF, 4 μg phosphatidylserine (Sigma-Aldrich), 50 μM [γ-^32P]ATP (NEN Life Science Products/Perkin-Elmer, Waltham, Mass.), 5 mM MgCl2, and, as substrate, 40 μM serine analogue of the PKC-ε pseudosubstrate (BioSource/Invitrogen, Carlsbad, Calif.). After incubation, ^32P-labeled substrate was trapped on P-81 filter paper and counted. This assay reflects the specific activity of a constant amount of aPKC (even in Het-MλKO mice) that is immunoprecipitated by supplier-prescribed amounts of antiserum (Farese et al., J. Clin. Invest. 117:2289-2301, 2007; Beeson et al., Diabetes 52:1926-1934, 2003).
Wild type mice were treated with 1.5 mg/kg ICAPP subcutaneously and after 2-30 hours, the mice were treated with 1 U/kg insulin 15 minutes before euthanasia. aPKC activity was determined as described in Example 1.

SMILES	inhibition of PIP3-activated recombinant PKC-ι (recombinant PKC-ι; in vitro)	inhibition of PKC-ζ (PKC-ζ)	IC50 (recombinant PKC-ι; 10 ng recombinant PKC-ι activated by 10 fM PIP3, in vitro) [nM]	insulin-stimulated aPKC activity in adipose tissue (aPKC)	insulin-stimulated aPKC activity in liver (aPKC)	insulin-stimulated aPKC activity in muscle (aPKC)
O=C([O-])CC([S][Au])C(=O)[O-] (stereo not drawn) [ATM, aurothiomalate, reference compound]	did not inhibit	–	–	–	–	–
NC(=O)c1ncn([C@@H]2C[C@H](COP(=O)(O)O)[C@@H](O)[C@H]2O)c1N [ICAPP, 1H-imidazole-4-carboxamide, 5-amino-1-[2,3-dihydroxy-4-[(phosphonooxy)methyl]cyclopentyl]-[1R-(1α,2β,3β,4α)]]	–	not inhibited	10 to 100	not in either muscle or adipose tissues	diminished	not in either muscle or adipose tissues
